What was measured:
human plasma [1] = assay: Anticoagulant effect in human plasma, activated partial thromboplastin time (aPTT); format: biochemical
From the text: (§1) Anticoagulant data may be represented as follows:

human plasma [2] = assay: Anticoagulant effect in human plasma, thrombin time (TT); format: biochemical
From the text: as §1

HUMAN LUNG TRYPTASE = assay: Inhibition of tryptase, progress curve analysis; format: biochemical; conditions: non-linear regression (ENZFITTER)
From the text: Using standard in vitro methodology for determining inhibitory activity of tryptase (Journal of Biological Chemistry, Vol. 261, June 5, pp. 7372-7379, 1986), the following results have been obtained.

rats = assay: FeCl₃-induced thrombosis model in rats; format: in vivo; conditions: intravenously 10 mg/kg of body weight injection, followed by continuous 1 mg/kg/minute infusion, 4 rats
From the text: In vivo anti-thrombotic effects in rats may also be utilized for evaluation. […] Of course, actual dosage and frequency will vary dependent upon the nature and severity of the condition, age, general health conditions and such other factors well known and appreciated by the skilled attending diagnostician.

Compound | ID₂ aPTT (amount required for doubling the clotting time) (human plasma [1]) | ID₂ TT (amount required for doubling the clotting time) (human plasma [2]) | kon (HUMAN LUNG TRYPTASE) | occlusion (rats)
CN[C@H](Cc1ccccc1)C(=O)N1CCC[C@H]1C(=O)NC(CCCNC(=N)N)C(=O)C(F)(F)F (stereo partly drawn) [D-CH₃Phe-Pro-Arg-CF₃, N-Methyl-D-phenylalanyl-N[4-(aminoiminomethyl)amino-1-(trifluoroacetyl)butyl]-L-proline amide] | 218 µM | 108 µM | 200 ± 10 M⁻¹ s⁻¹ | –
N=C(N)NCCCC(NC(=O)[C@@H]1CCCN1C(=O)[C@H](N)Cc1ccccc1)C(=O)C(F)(F)C(F)(F)F (stereo partly drawn) [D-Phe-Pro-Arg-CF₂CF₃, D-phenylalanyl-N-[4-(aminoiminomethyl)amino]-1-(pentafluoropropionylbutyl]-L-prolineamide, 1.5 HF, O.5 CH₃CO₂H, 3H₂O] | 2 µM | 1 µM | 1200 ± 40 M⁻¹ s⁻¹ | preventing occlusion in two rats and prolonging occlusion in the other 2 of the 4 rats
N=C(N)NCCCC(NC(=O)[C@@H]1CCCN1C(=O)[C@H](N)Cc1ccccc1)C(=O)C(F)(F)F (stereo partly drawn) [D-Phe-Pro-Arg-CF₃] | 148 µM | 43 µM | 370 ± 40 M⁻¹ s⁻¹ | –
